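1) Cells in 96-well plates. 2) Compound, 48 h, 5 concentrations. 3) Linear interpolation between surrounding doses. 4) Unreached endpoint = highest concentration. At the GI50, growth is halved.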 The source made the active and inactive calls. No stated cut-off is given here; in the data, active = GI50 up to about 1.1 µM and inactive = higher.
Experiments:
Assay in all cases: NCI tumour cell line growth inhibition, 48 h
ACHN = system: ACHN
BT-549 = system: BT-549
CCRF-CEM = system: CCRF-CEM
IGROV-1 = system: IGROV-1
KM12 = system: KM12
LOX IMVI = system: LOX IMVI
M14 = system: M14
MCF7 = system: MCF7
MDA-MB-435 = system: MDA-MB-435
MDA-N = system: MDA-N
Malme-3M = system: Malme-3M
NCI-H460 = system: NCI-H460
NCI-H522 = system: NCI-H522
NCI/ADR-RES = system: NCI/ADR-RES
OVCAR-8 = system: OVCAR-8
PC-3 = system: PC-3
RXF 393 = system: RXF 393
UACC-257 = system: UACC-257
UACC-62 = system: UACC-62
HCC 2998 = system: HCC 2998

Measured: GI50

CC(=O)CC(=O)Nc1ccc2ccccc2c1
inactive: ACHN > 100 µM | BT-549 > 100 µM | CCRF-CEM 36.8 µM | IGROV-1 > 100 µM | KM12 > 100 µM | LOX IMVI > 100 µM | M14 > 100 µM | MCF7 74.3 µM | MDA-MB-435 67.9 µM | MDA-N > 100 µM | Malme-3M > 100 µM | NCI-H460 > 100 µM | NCI-H522 47.2 µM | NCI/ADR-RES 67.3 µM | OVCAR-8 > 100 µM | PC-3 > 100 µM | RXF 393 > 100 µM | UACC-257 51.9 µM | UACC-62 > 100 µM

O=S(=O)(Cc1cnc(O)nc1O)Cc1cnc(O)nc1O
inactive: ACHN > 100 µM | BT-549 > 100 µM | IGROV-1 > 100 µM | KM12 > 100 µM | LOX IMVI > 100 µM | M14 > 100 µM | MCF7 > 100 µM | MDA-MB-435 > 100 µM | MDA-N > 100 µM | Malme-3M > 100 µM | NCI-H460 > 100 µM | NCI-H522 > 100 µM | NCI/ADR-RES > 100 µM | OVCAR-8 > 100 µM | PC-3 > 100 µM | RXF 393 > 100 µM | UACC-257 > 100 µM | UACC-62 > 100 µM

O=C1/C(=C/c2ccc(OC(=O)c3ccccc3)cc2)CCC/C1=C\c1ccc(OC(=O)c2ccccc2)cc1
inactive: ACHN > 100 µM | BT-549 > 100 µM | CCRF-CEM > 100 µM | HCC 2998 > 100 µM | IGROV-1 > 100 µM | KM12 > 100 µM | LOX IMVI > 100 µM | M14 > 100 µM | MCF7 > 100 µM | MDA-MB-435 > 100 µM | MDA-N > 100 µM | NCI-H460 > 100 µM | NCI-H522 > 100 µM | NCI/ADR-RES > 100 µM | OVCAR-8 > 100 µM | PC-3 > 100 µM | UACC-257 > 100 µM | UACC-62 > 100 µM

C[C@@]12c3c4ccc(C=O)c3Oc3ccc(C=O)c(c31)Oc1c(C=O)ccc(c12)O4
inactive: ACHN > 100 µM | BT-549 > 100 µM | HCC 2998 > 100 µM | IGROV-1 > 100 µM | KM12 > 100 µM | LOX IMVI > 100 µM | M14 > 100 µM | MCF7 > 100 µM | MDA-MB-435 > 100 µM | MDA-N > 100 µM | Malme-3M > 100 µM | NCI-H460 > 100 µM | NCI/ADR-RES > 100 µM | OVCAR-8 > 100 µM | PC-3 > 100 µM | UACC-257 > 100 µM | UACC-62 > 100 µM

O=C(CNC(c1ccccc1)(c1ccccc1)c1ccccc1)NC1CCCCC1NC(=O)CNC(c1ccccc1)(c1ccccc1)c1ccccc1 (stereo not given)
inactive: ACHN > 100 µM | BT-549 > 100 µM | CCRF-CEM > 100 µM | HCC 2998 > 100 µM | IGROV-1 > 100 µM | KM12 > 100 µM | LOX IMVI > 100 µM | MCF7 > 100 µM | MDA-MB-435 > 100 µM | MDA-N > 100 µM | Malme-3M > 100 µM | NCI-H460 > 100 µM | NCI-H522 > 100 µM | NCI/ADR-RES > 100 µM | OVCAR-8 > 100 µM | PC-3 > 100 µM | UACC-257 > 100 µM | UACC-62 > 100 µM

C#CCn1c2c(c3ccccc3c1=O)C(=O)c1ccccc1-2
inactive: BT-549 22.1 µM | CCRF-CEM > 100 µM | IGROV-1 15.7 µM | KM12 10.1 µM | LOX IMVI 18.2 µM | M14 42.8 µM | MCF7 9.06 µM | MDA-MB-435 67.3 µM | MDA-N 37.7 µM | Malme-3M 25.5 µM | NCI-H522 10.7 µM | NCI/ADR-RES 21.5 µM | OVCAR-8 19.6 µM | PC-3 11.7 µM | UACC-257 32.3 µM | UACC-62 21.4 µM

Cc1cc(NS(=O)(=O)c2ccc(Nc3c4ccccc4nc4c(C(=O)NC(CO)(CO)CO)cccc34)cc2)no1
inactive: ACHN 32.7 µM | BT-549 39.2 µM | CCRF-CEM 19.4 µM | HCC 2998 16.9 µM | IGROV-1 29 µM | KM12 25.2 µM | LOX IMVI 18.2 µM | M14 52.5 µM | MCF7 23.3 µM | MDA-MB-435 53.5 µM | MDA-N 37.3 µM | Malme-3M 29.4 µM | NCI-H460 > 10 µM | NCI-H522 15.8 µM | NCI/ADR-RES > 100 µM | OVCAR-8 49.7 µM | PC-3 31.3 µM | UACC-257 72.1 µM | UACC-62 22 µM

Reference: ChEMBL document CHEMBL1201862, “PubChem BioAssay data set” (2004)
